Tests used:
Rat M4 = target: T1, Rat M4 (Rattus norvegicus, UniProt P08485); test: mAChR M4 cell-based functional assay (calcium flux, antagonist mode vs EC80 acetylcholine), rat M4/Gqi5/CHO-K1 cells; conditions: for remaining activity at 30 µM: CHO-K1, % ACh maximum at 30 μM, rat M4, read-out: Rat M4 Emin (%); for IC50: decrease of response elicited by EC80 acetylcholine, rat M4/Gqi5 CHO-K1 cells
T1 construct: expressed in transfected cells; host or cells: CHO-K1 (ATCC), stably co-expressing chimeric G protein Gqi5
T1 sequence (P08485 1-478): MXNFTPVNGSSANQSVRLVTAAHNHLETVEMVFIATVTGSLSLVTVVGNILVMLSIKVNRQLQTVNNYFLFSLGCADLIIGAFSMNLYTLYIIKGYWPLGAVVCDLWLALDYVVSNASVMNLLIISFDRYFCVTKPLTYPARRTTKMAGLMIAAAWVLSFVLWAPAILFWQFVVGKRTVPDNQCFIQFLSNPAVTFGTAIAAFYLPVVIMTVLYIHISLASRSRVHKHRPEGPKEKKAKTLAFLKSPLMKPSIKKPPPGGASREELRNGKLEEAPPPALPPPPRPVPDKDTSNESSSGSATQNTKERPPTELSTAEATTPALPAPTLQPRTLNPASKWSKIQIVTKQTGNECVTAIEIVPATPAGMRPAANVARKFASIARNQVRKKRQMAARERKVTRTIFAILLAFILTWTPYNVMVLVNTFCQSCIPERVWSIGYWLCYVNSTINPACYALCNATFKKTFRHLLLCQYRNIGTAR
Procedure: (§1) Human or rat M4 cDNA, along with the chimeric G protein Gqi5, were transfected into Chinese hamster ovary (CHO-K1) cells purchased from the American Type Culture Collection using Lipofectamine2000. M4/Gqi5/CHO cells were grown in Ham's F-12 medium containing 10% heat-inactivated fetal bovine serum (FBS), 20 mM HEPES, 500 μg/mL G418 sulfate, and 200 μg/mL Hygromycin B.
(§2) For high throughput measurement of agonist-evoked increases in intracellular calcium, CHO-K1 cells stably expressing muscarinic receptors were plated in growth medium lacking G418 and hygromycin at 15,000 cells/20 μL/well in Greiner 384-well black-walled, tissue culture (TC)-treated, clear-bottom plates (VWR). Cells were incubated overnight at 37° C. and 5% CO2. The next day, cells were washed using an ELX 405 (BioTek) with assay buffer; the final volume was then aspirated to 20 μL. Next, 20 μL of a 2.3 μM stock of Fluo-4/acetoxymethyl ester (Invitrogen, Carlsbad, Calif.), prepared as a 2.3 mM stock in DMSO and mixed in a 1:1 ratio with 10% (w/v) Pluronic F-127 and diluted in assay buffer, was added to the wells and the cell plates were incubated for 50 min at 37° C. and 5% CO2. Dye was removed by washing with the ELX 405 and the final volume was aspirated to 20 μL. Compound master plates were formatted in a 10 point concentration-response curve (CRC) format (1:3 dilutions) in 100% DMSO with a starting concentration of 10 or 1 mM using a BRAVO liquid handler (Agilent). Test compound CRCs were then transferred to daughter plates (240 nL) using the Echo acoustic plate reformatter (Labcyte, Sunnyvale, Calif.) and then diluted into assay buffer (40 μL) to a 2× stock using a Thermo Fisher Combi (Thermo Fisher Scientific, Waltham, Mass.).
(§3) Calcium flux was measured using the Functional Drug Screening System (FDSS) 6000 or 7000 (Hamamatsu Corporation, Tokyo, Japan) as an increase in the fluorescent static ratio. Compounds were applied to cells (20 μL, 2×) using the automated system of the FDSS at 2 seconds into the protocol and the data were collected at 1 Hz. At 143 s, 10 μL of an EC20 concentration of the muscarinic receptor agonist acetylcholine was added (5×), followed by the addition of 12 μL of an EC80 concentration of acetylcholine at the 268 s time point (5×). Agonist activity was analyzed as a concentration-dependent increase in calcium mobilization upon compound addition. Positive allosteric modulator activity was analyzed as a concentration-dependent increase in the EC20 acetylcholine response. Antagonist activity was analyzed as a concentration-dependent decrease in the EC80 acetylcholine response; for the purposes of the tables herein, an IC50 (inhibitory concentration 50) was calculated as a concentration-dependent decrease of the response elicited by an EC80 concentration of acetylcholine. Concentration-response curves were generated using a four-parameter logistical equation in XLFit curve fitting software (IDBS, Bridgewater, N.J.) for Excel (Microsoft, Redmond, Wash.) or Prism (GraphPad Software, Inc., San Diego, Calif.) or the Dotmatics software platform (Dotmatics, Bishop's Stortford, UK).
(§4) Compounds were synthesized as described above. Activity (IC50 and Emin) was determined in the mAChR M4 cell-based functional assay as described above and the data are shown in Table 2.

Human M4 = target: T2, Human M4 (Homo sapiens, UniProt P08173); test: mAChR M4 cell-based functional assay (calcium flux, antagonist mode vs EC80 acetylcholine), human M4/Gqi5/CHO-K1 cells; conditions: for remaining activity at 30 µM: CHO-K1, % ACh maximum at 30 μM, human M4, read-out: Human M4 Emin (%); for IC50: decrease of response elicited by EC80 acetylcholine, human M4/Gqi5 CHO-K1 cells
T2 construct: expressed in transfected cells; host or cells: CHO-K1 (ATCC), stably co-expressing chimeric G protein Gqi5
T2 sequence (P08173 1-479): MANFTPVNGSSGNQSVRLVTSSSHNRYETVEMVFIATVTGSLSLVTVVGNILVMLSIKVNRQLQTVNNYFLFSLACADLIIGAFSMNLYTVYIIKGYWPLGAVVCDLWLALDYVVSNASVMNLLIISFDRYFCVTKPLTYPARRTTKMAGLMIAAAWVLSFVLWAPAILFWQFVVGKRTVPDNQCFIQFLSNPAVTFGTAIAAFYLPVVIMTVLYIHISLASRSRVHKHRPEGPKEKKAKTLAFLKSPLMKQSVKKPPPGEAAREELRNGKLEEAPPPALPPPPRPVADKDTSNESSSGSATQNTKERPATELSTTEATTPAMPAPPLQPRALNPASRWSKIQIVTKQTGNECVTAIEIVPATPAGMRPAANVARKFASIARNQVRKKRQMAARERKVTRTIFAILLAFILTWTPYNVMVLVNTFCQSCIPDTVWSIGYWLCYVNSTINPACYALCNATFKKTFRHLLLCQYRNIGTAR
Procedure: as §1, §2, §3, §4

Structure (SMILES)	remaining activity at 30 µM (Rat M4) [%]	IC50 (Rat M4) [nM]	remaining activity at 30 µM (Human M4) [%]	IC50 (Human M4) [nM]
COCCCN1C[C@H]2C[C@H](Nc3ccc(-c4cc(F)ccc4Cl)nn3)C[C@H]2C1 [compound 1, (3aR,5s,6aS)-N-(6-(2-chloro-5-fluorophenyl)pyridazin-3-yl)-2-(3-methoxypropyl)octahydrocyclopenta[c]pyrrol-5-amine]	5	740	4	42.2
Fc1ccc(Cl)c(-c2ccc(N[C@H]3C[C@@H]4CN(C5CCOCC5)C[C@@H]4C3)nn2)c1 [compound 2, (3aR,5s,6aS)-N-(6-(2-chloro-5-fluorophenyl)pyridazin-3-yl)-2-(tetrahydro-2H-pyran-4-yl)octahydrocyclopenta[c]pyrrol-5-amine]	6	1270	5	64.7
O=C(NC1CC1)c1ccc(N[C@H]2C[C@@H]3CN(CC4CCOCC4)C[C@@H]3C2)nn1 [compound 3, N-cyclopropyl-6-(((3aR,5s,6aS)-2-((tetrahydro-2H-pyran-4-yl)methyl)octahydrocyclopenta[c]pyrrol-5-yl)amino)pyridazine-3-carboxamide]	–	–	9	417
O=C(NC1CCCCC1)c1ccc(N[C@H]2C[C@@H]3CN(CC4CCOCC4)C[C@@H]3C2)nn1 [compound 4, N-cyclohexyl-6-(((3aR,5s,6aS)-2-((tetrahydro-2H-pyran-4-yl)methyl)octahydrocyclopenta[c]pyrrol-5-yl)amino)pyridazine-3-carboxamide]	–	–	6	535
O=C(c1ccc(N[C@H]2C[C@@H]3CN(CC4CCOCC4)C[C@@H]3C2)nn1)N1CCCCC1 [compound 5, piperidin-1-yl(6-(((3aR,5s,6aS)-2-((tetrahydro-2H-pyran-4-yl)methyl)octahydrocyclopenta[c]pyrrol-5-yl)amino)pyridazin-3-yl)methanone]	14	> 10000	14	5.45
O=C(c1ccc(N[C@H]2C[C@@H]3CN(CC4CCOCC4)C[C@@H]3C2)nn1)N1CCOCC1 [compound 6, morpholino(6-(((3aR,5s,6aS)-2-((tetrahydro-2H-pyran-4-yl)methyl)octahydrocyclopenta[c]pyrrol-5-yl)amino)pyridazin-3-yl)methanone]	13	7430	21	11.7
O=C(Nc1ccccc1)c1ccc(N[C@H]2C[C@@H]3CN(CC4CCOCC4)C[C@@H]3C2)nn1 [compound 7, N-phenyl-6-(((3aR,5s,6aS)-2-((tetrahydro-2H-pyran-4-yl)methyl)octahydrocyclopenta[c]pyrrol-5-yl)amino)pyridazine-3-carboxamide]	22	> 10000	4	572
O=C(Nc1ccccc1F)c1ccc(N[C@H]2C[C@@H]3CN(CC4CCOCC4)C[C@@H]3C2)nn1 [compound 8, N-(2-fluorophenyl)-6-(((3aR,5s,6aS)-2-((tetrahydro-2H-pyran-4-yl)methyl)octahydrocyclopenta[c]pyrrol-5-yl)amino)pyridazine-3-carboxamide]	25	> 10000	4	355
O=C(Nc1cccc(F)c1)c1ccc(N[C@H]2C[C@@H]3CN(CC4CCOCC4)C[C@@H]3C2)nn1 [compound 9, N-(3-fluorophenyl)-6-(((3aR,5s,6aS)-2-((tetrahydro-2H-pyran-4-yl)methyl)octahydrocyclopenta[c]pyrrol-5-yl)amino)pyridazine-3-carboxamide]	–	–	3	713
O=C(Nc1ccc(F)cc1)c1ccc(N[C@H]2C[C@@H]3CN(CC4CCOCC4)C[C@@H]3C2)nn1 [compound 10, N-(4-fluorophenyl)-6-(((3aR,5s,6aS)-2-((tetrahydro-2H-pyran-4-yl)methyl)octahydrocyclopenta[c]pyrrol-5-yl)amino)pyridazine-3-carboxamide]	9	4190	4	543
O=C(Nc1cc(F)ccc1Cl)c1ccc(N[C@H]2C[C@@H]3CN(CC4CCOCC4)C[C@@H]3C2)nn1 [compound 11, N-(2-chloro-5-fluorophenyl)-6-(((3aR,5s,6aS)-2-((tetrahydro-2H-pyran-4-yl)methyl)octahydrocyclopenta[c]pyrrol-5-yl)amino)pyridazine-3-carboxamide]	29	> 10000	4	2060
Fc1ccc(Cl)c(-c2ccc(N[C@H]3C[C@@H]4CN(C5CCCCC5)C[C@@H]4C3)nn2)c1 [compound 12, (3aR,5s,6aS)-N-(6-(2-chloro-5-fluorophenyl)pyridazin-3-yl)-2-cyclohexyloctahydrocyclopenta[c]pyrrol-5-amine]	5	445	4	2.85
N#Cc1ccccc1N1C[C@H]2C[C@H](Nc3ccc(-c4cc(F)ccc4Cl)nn3)C[C@H]2C1 [compound 17, 2-((3aR,5s,6aS)-5-((6-(2-chloro-5-fluorophenyl)pyridazin-3-yl)amino)hexahydrocyclopenta[c]pyrrol-2(1H)-yl)benzonitrile]	–	–	57	≥ 10000
CC1(C)CC(N2C[C@H]3C[C@H](Nc4ncc(-c5ccccc5)s4)C[C@H]3C2)CCO1 (stereo partly drawn) [compound 19, N-((3aR,5s,6aS)-2-(2,2-dimethyltetrahydro-2H-pyran-4-yl)octahydrocyclopenta[c]pyrrol-5-yl)-5-phenylthiazol-2-amine]	70	> 10000	–	–
CC1(C)CC(N2C[C@H]3C[C@H](Nc4ccc5nncn5n4)C[C@H]3C2)CCO1 (stereo partly drawn) [compound 61, N-((3aR,5s,6aS)-2-(2,2-dimethyltetrahydro-2H-pyran-4-yl)octahydrocyclopenta[c]pyrrol-5-yl)-[1,2,4]triazolo[4,3-b]pyridazin-6-amine]	–	–	52	> 10000
